Source: patent US20180140578A1, “METHODS AND COMPOSITIONS FOR THE DIAGNOSIS AND SELECTIVE TREATMENT OF CANCER” (Board of Regents of the University of Texas System, priority 2016, published 2018)
pIC50: −log10 of the molar value.

Legend:
RBM39-3xFLAG complex = molecular target: T1, RBM39-3xFLAG complex (Homo sapiens, UniProt Q14498+Q66K64); experiment: Immunoprecipitation of RBM39 complex +/− indisulam, LC-MS/MS (Table 1); conditions: H1155 RBM39-3xFLAG cells; 10 μM indisulam 2 hours
T1 construct: endogenous in cells; host or cells: H1155 RBM39-3xFLAG knock-in cells
Experimental: Anti-Flag M2 antibody (Sigma-Aldrich) was coupled to Dynabeads M-270 epoxy beads (Life Technologies) at the ratio of 10 μg of antibody/mg beads. […] Frozen cells were then pulverized in the a cryomill (Retsch) with one 25 mm steel ball and five cycles of three min at 25 Hz with intermittent cooling in liquid nitrogen. […] The lysates were centrifuged at 8000 g for 5 min at 4° C. 12 mg of conjugated Anti-Flag magnetic beads were mixed with clarified lysates for 5 min at 4° C. on a rotating platform, followed by three washes with IP buffer. Bound proteins were eluted with 1 mg/ml 3xFLAG peptide, followed by SDS-PAGE on a 10% Bis Tris gel. After brief electrophoresis, bands containing all the proteins were cut with clean blades. For western blotting of co-immunoprecipitated proteins, anti-DDA1 (ProteinTech, 14995-1-AP, 1:1000), anti-DDB1 (Abcam, ab109027, 1;10000), anti-CUL4A (Cell Signaling, 2699, 1:1000), anti-CUL4B (ProteinTech, 12916-1-AP, 1:1000) were used.
Excised gel bands were cut into approximately 1 mm^3 pieces. Gel pieces were then subjected to a modified in-gel trypsin digestion procedure (46). Gel pieces were washed and dehydrated with acetonitrile for 10 min. followed by removal of acetonitrile. Pieces were then completely dried in a speed-vac. […] Peptides were detected, isolated, and fragmented to produce a tandem mass spectrum of specific fragment ions for each peptide. […]

[1] = molecular target: T2, DDB1:DCAF15-GST and RBM39Δ150 (Homo sapiens, UniProt Q14498+Q66K64); experiment: Indisulam dependent co-fractionation of DCAF15-DDB1 and RBM39 (size exclusion chromatography); format: binding; conditions: 10 μM indisulam
T2 construct: made in house; host or cells: Sf9 (baculovirus)
Experimental: RBM39 lacking the first 150 amino acids after the start codon (RBM39Δ150) was cloned into the pFastBac1 (Life Technologies) vector. Site-directed Mutagenesis of RBM39 was performed using Q5 site-directed mutagenesis kit (NEB). DCAF15-GST (C-terminal GST tag) and DDB1 were also cloned into pFastBac1. The production of baculovirus was carried out following vendor's instructions. Protein was expressed in SF9 cells by infection with each protein specific baculovirus, and cells were harvested 48 hr later and frozen in liquid nitrogen. For purification of RBM39Δ150, frozen cells were pulverized by cryomill and resuspended in lysis buffer (40 mM Tris, pH 7.5, 225 mM NaCl, 1× […] Protease inhibitor). The lysate was passed through a 22 gauge needle 2 times followed by ultracentrifugation at 25000 rpm for 30 min. Clarified lysate was incubated with Ni-NTA agarose (Qiagen) for 30 min with rotation at 4° C. Resin and bound protein were washed with wash buffer 1 (40 mM Tris, pH 7.5, 225 mM NaCl) followed by wash buffer 2 (40 mM Tris, pH 7.5, 20 mM imidazole, 225 mM NaCl). Proteins were eluted with elution buffer (40 mM Tris, pH 7.5, 300 mM imidazole, 225 mM NaCl) and concentrated to 0.5 ml. […]
The mixture was incubated for 1 hour with rotation at 4° C. […] 1 ml fractions were collected and analyzed by SDS-PAGE and coomassie blue staining.

[2] = system: HCT-116 RBM39 G268V knock-in cells; experiment: Cell viability assay, RBM39 G268V knock-in; format: cell-based, human
Experimental: (§1) 12-point dose responses were performed on 96-well assay plates with cell plating (1500-4000 cell per well) on day 1, compound addition on day 2, and survival measurement on day 5. Compounds were diluted in DMSO before adding to the cells. Final DMSO concentration was 0.5%. Cell survival assay was performed using CellTiter-Glo Luminescent Cell Viability Assay kit (Promega) that measures cellular ATP content. Luminescence was recorded by EnVison multimode plate reader (Perkin Elmer). IC50 was determined with GraphPad Prism using baseline correction (by normalizing to DMSO control), the asymmetric (five parameter) equation and least squares fit.
(§2) sgRNA targeting RBM39 (5′-[…]-3′) was cloned into the pSpCas9(BB)-2A-Puro (PX459) vector (Addgene 62988). For RBM39 G268V knock-in, 1 million HCT-116 or H1155 cells were nucleofected (using 4D-Nucleofector, Lonza) with PX459-RBM39 sgRNA and the single-stranded oligo 5′-[…] […] […] […]-3′ (SEQ ID NO: 13).

[3] = system: H1155 RBM39 G268V knock-in cells; experiment: Cell viability assay, RBM39 G268V knock-in; format: cell-based, human
Experimental: as §1, §2

T2 sequence (Q66K64 whole entry, stated change not applied): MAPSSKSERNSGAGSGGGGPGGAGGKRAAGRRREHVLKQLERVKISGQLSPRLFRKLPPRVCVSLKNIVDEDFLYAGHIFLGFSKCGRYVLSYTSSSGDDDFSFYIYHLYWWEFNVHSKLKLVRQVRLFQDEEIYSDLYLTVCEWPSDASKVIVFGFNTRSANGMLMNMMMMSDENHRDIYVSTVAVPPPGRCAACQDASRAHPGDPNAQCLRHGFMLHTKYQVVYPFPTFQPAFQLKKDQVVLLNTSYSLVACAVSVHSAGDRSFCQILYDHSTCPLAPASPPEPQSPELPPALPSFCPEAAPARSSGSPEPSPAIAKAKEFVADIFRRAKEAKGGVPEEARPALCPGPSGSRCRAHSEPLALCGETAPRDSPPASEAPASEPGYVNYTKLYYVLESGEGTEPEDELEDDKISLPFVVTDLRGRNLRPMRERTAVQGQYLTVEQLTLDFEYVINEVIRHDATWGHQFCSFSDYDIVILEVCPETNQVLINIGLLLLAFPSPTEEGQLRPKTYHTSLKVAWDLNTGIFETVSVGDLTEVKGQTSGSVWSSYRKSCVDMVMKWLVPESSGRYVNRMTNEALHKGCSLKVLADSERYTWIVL
T2 sequence (Q14498 151-530 limits assumed, stated change not applied): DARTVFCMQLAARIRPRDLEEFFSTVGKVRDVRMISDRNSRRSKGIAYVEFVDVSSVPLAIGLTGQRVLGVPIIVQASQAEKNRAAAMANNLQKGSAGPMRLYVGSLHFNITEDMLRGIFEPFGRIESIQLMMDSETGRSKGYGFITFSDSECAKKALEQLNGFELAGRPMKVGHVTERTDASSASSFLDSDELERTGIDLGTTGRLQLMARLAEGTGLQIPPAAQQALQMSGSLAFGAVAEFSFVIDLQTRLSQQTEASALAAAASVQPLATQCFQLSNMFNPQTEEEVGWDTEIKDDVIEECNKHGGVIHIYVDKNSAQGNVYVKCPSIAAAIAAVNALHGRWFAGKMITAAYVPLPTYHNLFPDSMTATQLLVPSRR
T2 sequence (Q16531 whole entry partner): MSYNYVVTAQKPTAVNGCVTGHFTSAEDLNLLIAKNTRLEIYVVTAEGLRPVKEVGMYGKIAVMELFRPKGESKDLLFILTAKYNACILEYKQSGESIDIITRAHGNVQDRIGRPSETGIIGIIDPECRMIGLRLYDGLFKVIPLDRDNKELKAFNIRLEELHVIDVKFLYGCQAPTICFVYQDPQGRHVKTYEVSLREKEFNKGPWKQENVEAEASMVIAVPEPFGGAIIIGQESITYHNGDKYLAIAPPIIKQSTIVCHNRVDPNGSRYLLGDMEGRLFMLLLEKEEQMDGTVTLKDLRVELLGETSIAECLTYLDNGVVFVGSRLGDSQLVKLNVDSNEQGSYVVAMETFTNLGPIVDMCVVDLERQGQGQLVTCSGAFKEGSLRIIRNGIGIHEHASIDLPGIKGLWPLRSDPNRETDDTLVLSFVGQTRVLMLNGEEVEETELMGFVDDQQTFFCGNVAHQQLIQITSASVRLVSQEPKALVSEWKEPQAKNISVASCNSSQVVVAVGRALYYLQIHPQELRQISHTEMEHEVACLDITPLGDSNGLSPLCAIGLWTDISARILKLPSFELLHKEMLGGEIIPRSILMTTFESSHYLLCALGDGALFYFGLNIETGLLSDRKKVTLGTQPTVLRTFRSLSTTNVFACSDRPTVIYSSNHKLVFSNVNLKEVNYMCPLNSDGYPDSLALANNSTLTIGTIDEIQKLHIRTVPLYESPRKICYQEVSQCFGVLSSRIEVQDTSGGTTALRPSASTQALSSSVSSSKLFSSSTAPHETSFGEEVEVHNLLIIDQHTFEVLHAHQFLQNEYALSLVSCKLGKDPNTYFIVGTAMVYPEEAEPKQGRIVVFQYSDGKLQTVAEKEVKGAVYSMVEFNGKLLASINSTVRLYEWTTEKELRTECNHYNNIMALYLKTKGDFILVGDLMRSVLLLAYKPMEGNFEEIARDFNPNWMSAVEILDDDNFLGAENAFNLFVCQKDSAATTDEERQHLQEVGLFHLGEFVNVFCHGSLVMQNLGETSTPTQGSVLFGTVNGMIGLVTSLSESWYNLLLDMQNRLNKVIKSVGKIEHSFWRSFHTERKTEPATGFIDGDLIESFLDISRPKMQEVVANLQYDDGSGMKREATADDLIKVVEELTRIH

For `NS(=O)(=O)c1ccc(S(=O)(=O)Nc2cccc3c(Cl)c[nH]c23)cc1` [Indisulam, indisulam], the “recruitment of RBM39 to CUL4, DDB1, DDA1, DCAF15 CRL complex (shotgun mass spectrometry)” value (RBM39-3xFLAG complex) was “induces recruitment of RBM39”, the “elution of RBM39Δ150 with DDB1:DCAF15-GST peak” value [1] was “co-elutes” and the pIC50 ([2]; Homo sapiens, HCT-116, two independent RBM39 G268V knock-in HCT-116 clones) was 4.41. For the same compound, the pIC50 ([2]; two independent RBM39 G268V knock-in HCT-116 clones) was 4.28 and the “effect of G268V editing on indisulam sensitivity” value [3] was “indisulam resistance”.
